What all share (assay): relative viability (nuclei count vs DMSO), 5 days (fraction); higher = more cells survive
Compound in the assay “Ispinesib + Tozasertib”: Cc1ccc(C(=O)N(CCCN)[C@@H](c2nc3cc(Cl)ccc3c(=O)n2Cc2ccccc2)C(C)C)cc1 [Ispinesib] + Cc1cc(Nc2cc(N3CCN(C)CC3)nc(Sc3ccc(NC(=O)C4CC4)cc3)n2)n[nH]1 [Tozasertib] (partner 0.1 µM)
In short, it runs like this: (§1)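 Values are medians from duplicate plates. Each reflects relative viability, defined as the nuclei count of treated wells over that of vehicle wells. Lung cancer cell lines in 1536-well plates were pin-tool dosed one day after seeding with one drug alone or with a fixed anchor-drug dose plus five library-drug doses (not always all listed) in √10 steps, then fixed, stained and imaged at 4× after 5 days.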

Compound in the assay “Linsitinib + AZD7762”: C[C@]1(O)C[C@@H](c2nc(-c3ccc4ccc(-c5ccccc5)nc4c3)c3c(N)nccn32)C1 [Linsitinib] + NC(=O)Nc1cc(-c2cccc(F)c2)sc1C(=O)N[C@H]1CCCNC1 [AZD7762] (partner 0.2 µM)
Put shortly:
as §1

Compound in the assay “Linsitinib + Pictilisib”: C[C@]1(O)C[C@@H](c2nc(-c3ccc4ccc(-c5ccccc5)nc4c3)c3c(N)nccn32)C1 [Linsitinib] + CS(=O)(=O)N1CCN(Cc2cc3nc(-c4cccc5[nH]ncc45)nc(N4CCOCC4)c3s2)CC1 [Pictilisib] (partner 1 µM)
In short, it runs like this:
as §1

Compound in the assay “Linsitinib + Palbociclib”: C[C@]1(O)C[C@@H](c2nc(-c3ccc4ccc(-c5ccccc5)nc4c3)c3c(N)nccn32)C1 [Linsitinib] + CC(=O)c1c(C)c2cnc(Nc3ccc(N4CCNCC4)cn3)nc2n(C2CCCC2)c1=O [Palbociclib] (partner 0.5 µM)
In short, it runs like this: as §1

As to NCI-H1944, the relative viability with Ispinesib + Tozasertib (first compound 0.001 µM) amounted to 0.263; in the assay with Ispinesib + Tozasertib (first compound 0.003162 µM) it was 0.249; in the assay with Ispinesib + Tozasertib (first compound 0.01 µM), 0.275; with Ispinesib + Tozasertib (first compound 0.03162 µM), 0.225; in the assay with Ispinesib + Tozasertib (first compound 0.1 µM), 0.234; in the assay with Linsitinib + AZD7762 (first compound 0.01 µM), 0.469. Moreover, the relative viability in the assay with Linsitinib + AZD7762 (first compound 0.03162 µM) was 0.455; with Linsitinib + AZD7762 (first compound 0.1 µM), 0.547; in the assay with Linsitinib + AZD7762 (first compound 0.3162 µM), 0.478; in the assay with Linsitinib + AZD7762 (first compound 1 µM), 0.266; with Linsitinib + Pictilisib (first compound 0.01 µM) it was 0.33; with Linsitinib + Pictilisib (first compound 0.03162 µM), 0.354. Besides, the relative viability with Linsitinib + Pictilisib (first compound 0.1 µM) turned out to be 0.344; in the assay with Linsitinib + Pictilisib (first compound 0.3162 µM), 0.349; in the assay with Linsitinib + Pictilisib (first compound 1 µM) it was 0.299; in the assay with Linsitinib + Palbociclib (first compound 0.01 µM) it was 0.398; with Linsitinib + Palbociclib (first compound 0.03162 µM), 0.418; with Linsitinib + Palbociclib (first compound 0.1 µM) it was 0.286. Also, the relative viability with Linsitinib + Palbociclib (first compound 0.3162 µM) is 0.303; with Linsitinib + Palbociclib (first compound 1 µM), 0.296.

In the case of A-427, the relative viability with Ispinesib + Tozasertib (first compound 0.001 µM) stood at 0.203; with Ispinesib + Tozasertib (first compound 0.003162 µM), 0.216; with Ispinesib + Tozasertib (first compound 0.01 µM), 0.189; in the assay with Ispinesib + Tozasertib (first compound 0.03162 µM), 0.185; in the assay with Ispinesib + Tozasertib (first compound 0.1 µM), 0.23; with Linsitinib + AZD7762 (first compound 0.01 µM), 0.749. Also, the relative viability is 0.624 in the assay with Linsitinib + AZD7762 (first compound 0.03162 µM); 0.742 with Linsitinib + AZD7762 (first compound 0.1 µM); 0.535 with Linsitinib + AZD7762 (first compound 1 µM); 0.53 with Linsitinib + Pictilisib (first compound 0.01 µM); 0.594 with Linsitinib + Pictilisib (first compound 0.03162 µM); 0.719 with Linsitinib + Pictilisib (first compound 0.1 µM). The relative viability in the assay with Linsitinib + Pictilisib (first compound 1 µM) is 0.688; with Linsitinib + Palbociclib (first compound 0.01 µM) it was 0.516; with Linsitinib + Palbociclib (first compound 0.03162 µM), 0.568; in the assay with Linsitinib + Palbociclib (first compound 0.1 µM), 0.535; with Linsitinib + Palbociclib (first compound 1 µM), 0.494.

As to NCI-H650, the relative viability with Ispinesib + Tozasertib (first compound 0.001 µM) came out at 0.738; with Ispinesib + Tozasertib (first compound 0.003162 µM) it was 0.712; in the assay with Ispinesib + Tozasertib (first compound 0.01 µM), 0.77; with Ispinesib + Tozasertib (first compound 0.03162 µM), 0.742; with Ispinesib + Tozasertib (first compound 0.1 µM), 0.426; with Linsitinib + AZD7762 (first compound 0.01 µM), 1.01. Moreover, the relative viability in the assay with Linsitinib + AZD7762 (first compound 0.03162 µM) was determined as 0.801; with Linsitinib + AZD7762 (first compound 0.1 µM) it was 0.922; with Linsitinib + AZD7762 (first compound 1 µM) it was 0.905; in the assay with Linsitinib + Pictilisib (first compound 0.01 µM), 0.875; with Linsitinib + Pictilisib (first compound 0.03162 µM), 0.876; with Linsitinib + Pictilisib (first compound 0.1 µM), 0.953. Further, the relative viability was 0.814 with Linsitinib + Pictilisib (first compound 1 µM); 0.348 with Linsitinib + Palbociclib (first compound 0.01 µM); 0.364 in the assay with Linsitinib + Palbociclib (first compound 0.03162 µM); 0.339 in the assay with Linsitinib + Palbociclib (first compound 0.1 µM); 0.291 with Linsitinib + Palbociclib (first compound 1 µM).

In the case of NCI-H1755, the relative viability was determined as 0.529 with Ispinesib + Tozasertib (first compound 0.001 µM); 0.627 with Ispinesib + Tozasertib (first compound 0.003162 µM); 0.595 with Ispinesib + Tozasertib (first compound 0.01 µM); 0.638 with Ispinesib + Tozasertib (first compound 0.03162 µM); 0.46 with Ispinesib + Tozasertib (first compound 0.1 µM); 0.454 in the assay with Linsitinib + AZD7762 (first compound 0.01 µM). For the same cell line, the relative viability was determined as 0.421 with Linsitinib + AZD7762 (first compound 0.03162 µM); 0.531 with Linsitinib + AZD7762 (first compound 0.1 µM); 0.657 with Linsitinib + AZD7762 (first compound 0.3162 µM); 0.363 in the assay with Linsitinib + AZD7762 (first compound 1 µM); 0.422 with Linsitinib + Pictilisib (first compound 0.01 µM); 0.409 in the assay with Linsitinib + Pictilisib (first compound 0.03162 µM). Moreover, the relative viability turned out to be 0.442 with Linsitinib + Pictilisib (first compound 0.1 µM); 0.237 with Linsitinib + Pictilisib (first compound 0.3162 µM); 0.372 in the assay with Linsitinib + Pictilisib (first compound 1 µM); 0.475 with Linsitinib + Palbociclib (first compound 0.01 µM); 0.48 with Linsitinib + Palbociclib (first compound 0.03162 µM); 0.467 in the assay with Linsitinib + Palbociclib (first compound 0.1 µM). Besides, the values for the relative viability with Linsitinib + Palbociclib (first compound 0.3162 µM) and with Linsitinib + Palbociclib (first compound 1 µM) were 0.345 and 0.444, respectively.

On to NCI-H2085, for which the relative viability with Ispinesib + Tozasertib (first compound 0.001 µM) came to 0.881; with Ispinesib + Tozasertib (first compound 0.003162 µM) it was 0.855; in the assay with Ispinesib + Tozasertib (first compound 0.01 µM) it was 1; in the assay with Ispinesib + Tozasertib (first compound 0.03162 µM), 0.76; with Ispinesib + Tozasertib (first compound 0.1 µM), 0.651; with Linsitinib + AZD7762 (first compound 0.01 µM), 0.916. Moreover, the relative viability turned out to be 0.837 with Linsitinib + AZD7762 (first compound 0.03162 µM); 1.04 with Linsitinib + AZD7762 (first compound 0.1 µM); 0.896 in the assay with Linsitinib + AZD7762 (first compound 0.3162 µM); 0.939 with Linsitinib + AZD7762 (first compound 1 µM); 0.431 with Linsitinib + Pictilisib (first compound 0.01 µM); 0.462 with Linsitinib + Pictilisib (first compound 0.03162 µM). The relative viability was 0.426 in the assay with Linsitinib + Pictilisib (first compound 0.1 µM); 0.466 with Linsitinib + Pictilisib (first compound 0.3162 µM); 0.471 with Linsitinib + Pictilisib (first compound 1 µM); 0.434 with Linsitinib + Palbociclib (first compound 0.01 µM); 0.465 with Linsitinib + Palbociclib (first compound 0.03162 µM); 0.493 in the assay with Linsitinib + Palbociclib (first compound 0.1 µM). The relative viability with Linsitinib + Palbociclib (first compound 0.3162 µM) was 0.445; with Linsitinib + Palbociclib (first compound 1 µM), 0.478.

As for HOP-62, the relative viability with Ispinesib + Tozasertib (first compound 0.001 µM) was determined as 0.373; with Ispinesib + Tozasertib (first compound 0.003162 µM) it was 0.47; in the assay with Ispinesib + Tozasertib (first compound 0.01 µM) it was 0.389; with Ispinesib + Tozasertib (first compound 0.03162 µM) it was 0.449; with Ispinesib + Tozasertib (first compound 0.1 µM) it was 0.406; in the assay with Linsitinib + AZD7762 (first compound 0.01 µM), 0.583. For the same cell line, the relative viability worked out at 0.577 with Linsitinib + AZD7762 (first compound 0.03162 µM); 0.769 with Linsitinib + AZD7762 (first compound 0.1 µM); 0.298 in the assay with Linsitinib + AZD7762 (first compound 1 µM); 0.894 with Linsitinib + Pictilisib (first compound 0.01 µM); 0.715 with Linsitinib + Pictilisib (first compound 0.03162 µM); 0.934 with Linsitinib + Pictilisib (first compound 0.1 µM). For the same cell line, the relative viability came out at 0.356 with Linsitinib + Pictilisib (first compound 1 µM); 0.435 with Linsitinib + Palbociclib (first compound 0.01 µM); 0.424 in the assay with Linsitinib + Palbociclib (first compound 0.03162 µM); 0.49 with Linsitinib + Palbociclib (first compound 0.1 µM); 0.45 with Linsitinib + Palbociclib (first compound 1 µM).

The values above are taken from the supplement of paper PMC10307832.
